Test results taken from PMC11427300, “Cryptic enzymatic assembly of peptides armed with β-lactone warheads” (Nature Chemical Biology, 2024).

Experiments:
Assay type in all cases: biochemical
[1] = target: T1, CysF (Kitasatospora cystarginea, UniProt A0A1W6R555); test: LC-MS, hydroxylamine trapping as hydroxamic acid […]; conditions: ATP, adenylation only, no lactone formed
T1 construct: C-terminal His tag (pET21-a(+)), E. coli; 8RA0 is the apo structure, residues 1-491 mentioned
T1 sequence (A0A1W6R555 1-491): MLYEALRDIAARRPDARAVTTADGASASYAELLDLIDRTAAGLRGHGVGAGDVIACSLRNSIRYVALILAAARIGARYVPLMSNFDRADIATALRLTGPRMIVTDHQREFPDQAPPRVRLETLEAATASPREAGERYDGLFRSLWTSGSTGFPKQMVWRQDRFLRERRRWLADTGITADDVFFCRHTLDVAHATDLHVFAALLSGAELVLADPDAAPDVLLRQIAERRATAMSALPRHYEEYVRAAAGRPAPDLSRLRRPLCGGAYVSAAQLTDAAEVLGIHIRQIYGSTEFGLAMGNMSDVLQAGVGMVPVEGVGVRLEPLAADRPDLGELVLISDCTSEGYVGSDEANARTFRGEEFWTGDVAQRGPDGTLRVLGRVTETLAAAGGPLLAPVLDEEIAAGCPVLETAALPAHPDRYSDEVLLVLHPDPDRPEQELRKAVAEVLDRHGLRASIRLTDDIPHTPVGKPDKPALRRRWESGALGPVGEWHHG

[2] = target: T2, CysG (Kitasatospora cystarginea, UniProt A0A1W6R556); test: LC-MS and NMR product analysis; conditions: MgCl2, phosphate pH 7.8, 25 °C
T2 construct: C-terminal His tag (pET28-a(+)), E. coli BL21(DE3)
T2 sequence (A0A1W6R556 1-228): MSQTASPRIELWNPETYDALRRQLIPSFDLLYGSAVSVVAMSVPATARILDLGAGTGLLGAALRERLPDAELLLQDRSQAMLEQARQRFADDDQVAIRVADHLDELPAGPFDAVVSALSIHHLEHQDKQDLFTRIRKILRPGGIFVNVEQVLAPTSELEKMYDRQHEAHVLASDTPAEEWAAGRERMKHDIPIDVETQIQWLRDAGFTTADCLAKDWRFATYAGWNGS

[3] = target: T3, BelH (Streptomyces sp., UniProt A0A1W6R584); test: LC-MS and GC-MS, cascade assay with BelI or BelR; conditions: ATP, MgCl2, phosphate pH 7.8, 25 °C; β-lactonization to 3b
T3 construct: N-terminal His tag (pET28-a(+)), E. coli BL21(DE3)
T3 sequence (A0A1W6R584 1-491): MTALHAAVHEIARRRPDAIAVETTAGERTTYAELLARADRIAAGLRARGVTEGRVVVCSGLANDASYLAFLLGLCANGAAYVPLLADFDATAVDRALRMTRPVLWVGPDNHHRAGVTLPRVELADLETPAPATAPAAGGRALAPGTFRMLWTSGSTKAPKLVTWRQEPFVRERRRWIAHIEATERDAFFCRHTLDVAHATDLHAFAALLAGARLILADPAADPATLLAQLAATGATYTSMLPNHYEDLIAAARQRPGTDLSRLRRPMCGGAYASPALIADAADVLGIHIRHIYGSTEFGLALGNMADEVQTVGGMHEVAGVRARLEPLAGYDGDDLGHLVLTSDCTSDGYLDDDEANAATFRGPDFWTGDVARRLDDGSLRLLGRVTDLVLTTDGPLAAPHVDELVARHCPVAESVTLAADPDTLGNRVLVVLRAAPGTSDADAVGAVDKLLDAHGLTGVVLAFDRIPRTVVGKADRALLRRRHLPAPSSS

[4] = target: T4, CysE (Kitasatospora cystarginea, UniProt A0A1W6R564); test: LC-MS, tandem assay with CysF; conditions: 3a generated in situ from 2a by CysF and ATP; MgCl2, phosphate pH 7.8, 25 °C
T4 construct: C-terminal His tag (pET28-a(+)), E. coli BL21(DE3)
T4 sequence (A0A1W6R564 1-271): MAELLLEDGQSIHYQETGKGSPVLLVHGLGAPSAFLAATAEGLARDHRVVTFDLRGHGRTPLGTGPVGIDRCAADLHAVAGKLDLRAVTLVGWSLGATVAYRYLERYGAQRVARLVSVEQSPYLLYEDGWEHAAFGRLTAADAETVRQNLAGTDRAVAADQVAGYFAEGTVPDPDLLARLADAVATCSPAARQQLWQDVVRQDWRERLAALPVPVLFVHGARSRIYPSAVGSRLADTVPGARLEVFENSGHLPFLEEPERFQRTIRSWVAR

[5] = target: T5, BhCysFE (Bradyrhizobium huanghuaihaiense, UniProt A0A562R406); test: LC-MS
T5 construct: gene IQ16_06114; natural fusion (CysF-like aa 1-487, linker ATPVNMR, CysE-like aa 495-768), C-terminal His tag (pET28-a(+)), E. coli
T5 sequence (A0A562R406 1-768): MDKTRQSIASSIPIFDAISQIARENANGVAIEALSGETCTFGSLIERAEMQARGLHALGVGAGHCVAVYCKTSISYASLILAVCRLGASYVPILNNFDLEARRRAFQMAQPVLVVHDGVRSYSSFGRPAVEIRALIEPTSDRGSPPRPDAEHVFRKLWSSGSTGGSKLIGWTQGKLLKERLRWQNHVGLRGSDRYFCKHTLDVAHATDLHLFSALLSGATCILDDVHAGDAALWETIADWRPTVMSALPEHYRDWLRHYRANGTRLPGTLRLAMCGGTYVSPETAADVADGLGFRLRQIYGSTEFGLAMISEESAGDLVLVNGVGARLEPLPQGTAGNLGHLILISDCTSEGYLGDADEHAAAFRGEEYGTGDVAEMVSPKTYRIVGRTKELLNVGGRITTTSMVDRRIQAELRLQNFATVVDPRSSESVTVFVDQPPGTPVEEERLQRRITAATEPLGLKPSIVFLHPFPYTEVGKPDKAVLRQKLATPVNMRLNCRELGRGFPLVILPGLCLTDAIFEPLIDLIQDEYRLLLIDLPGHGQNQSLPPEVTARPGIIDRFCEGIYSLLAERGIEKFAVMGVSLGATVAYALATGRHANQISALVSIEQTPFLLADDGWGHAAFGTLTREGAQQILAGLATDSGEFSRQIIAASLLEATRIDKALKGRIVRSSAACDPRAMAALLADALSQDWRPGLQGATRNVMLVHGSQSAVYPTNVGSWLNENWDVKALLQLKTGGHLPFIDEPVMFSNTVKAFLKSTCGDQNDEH

[6] = target: T1, CysF; test: GC-MS and 1H NMR product analysis; conditions: ATP, MgCl2, phosphate pH 7.8, 25 °C; β-lactonization to 3a

CC(C)[C@H](C(=O)O)[C@@H](O)C(=O)O [1a, malic acid 1a]
LC-MS, hydroxylamine trapping as hydroxamic acid 10 [1]: CysF can efficiently activate the C4-carboxyl of 1a | LC-MS and NMR product analysis ([2]; SAM, C1-carboxylate methylated): CysG exclusively produced the C1-methyl ester 2a from 1a and SAM

CCC(C)[C@H](C(=O)O)[C@@H](O)C(=O)OC (some centres unmarked) [2b]
LC-MS and GC-MS, cascade assay with BelI or BelR [3]: GC-MS analysis of the CysGF and BelIH cascade confirmed the formation of 3a/b

COC(=O)[C@@H]1OC(=O)[C@H]1C(C)C [3a, β-lactone methyl ester 3a]
LC-MS, tandem assay with CysF [4]: tandem reaction with CysF and CysE, including ATP, resulted in the β-lactone carboxylic acid 4a

C[S+](CC[C@H](N)C(=O)O)C[C@H]1O[C@@H](n2cnc3c(N)ncnc32)[C@H](O)[C@@H]1O (some centres unmarked) [S-adenosyl methionine]
LC-MS and NMR product analysis ([2]; co-substrate 1a): CysG exclusively produced the C1-methyl ester 2a from 1a and SAM

Nc1ncnc2c1ncn2[C@@H]1O[C@H](COP(=O)(O)OP(=O)(O)OP(=O)(O)O)[C@@H](O)[C@H]1O [adenosine triphosphate]
LC-MS ([5]; co-substrate 2a): incubated with 2a and ATP, leading to a quantitative production of 4a

COC(=O)[C@H](O)[C@@H](C(=O)O)C(C)C [2a, C1-methyl ester 2a]
LC-MS ([5]; ATP, lactonization and ester hydrolysis to 4a): incubated with 2a and ATP, leading to a quantitative production of 4a | GC-MS and 1H NMR product analysis [6]: 2a was again consumed in the CysF reaction with ATP
